{"source": "ChEMBL document CHEMBL3399976", "about": "“Dual inhibition of allosteric mitogen-activated protein kinase (MEK) and phosphatidylinositol 3-kinase (PI3K) oncogenic targets with a bifunctional inhibitor” (Bioorg Med Chem, 2015)", "key": {"[1]": {"system": "A549", "assay": "Inhibition of PI3K in human A549 cells assessed as reduction in pAkt level after 1 hr by Western blotting analysis", "format": "cell-based"}, "[2]": {"assay": "Cytotoxicity against mouse lung fibroblast at 10 to 25 uM after 24 hrs by Alamar Blue assay", "format": "cell-based"}, "[3]": {"biological_target": "T1, Dual specificity mitogen-activated protein kinase kinase 1 (Homo sapiens, UniProt Q02750)", "T1 sequence (Q02750 whole entry)": "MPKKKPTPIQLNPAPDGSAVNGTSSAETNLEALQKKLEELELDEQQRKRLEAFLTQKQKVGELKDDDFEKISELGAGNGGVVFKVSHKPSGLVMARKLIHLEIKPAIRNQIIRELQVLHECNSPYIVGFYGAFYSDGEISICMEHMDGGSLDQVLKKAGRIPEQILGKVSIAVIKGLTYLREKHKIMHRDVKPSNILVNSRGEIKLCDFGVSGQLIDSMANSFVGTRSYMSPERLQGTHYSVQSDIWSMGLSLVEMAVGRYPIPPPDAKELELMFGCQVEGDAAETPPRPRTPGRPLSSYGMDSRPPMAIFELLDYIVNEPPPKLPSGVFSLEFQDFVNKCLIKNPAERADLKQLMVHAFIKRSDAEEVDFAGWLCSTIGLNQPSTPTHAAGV", "assay": "Inhibition of MEK1 in human A549 cells assessed as reduction in pErk1/2 level at 25 uM after 1 hr by Western blotting analysis", "format": "cell-based"}, "[4]": {"system": "A549", "assay": "Cytotoxicity against human A549 cells at 10 to 25 uM after 24 hrs by Alamar Blue assay", "format": "functional"}, "[5]": {"system": "A549", "assay": "Inhibition of PI3K in human A549 cells assessed as reduction in pAkt level at 25 uM after 1 hr by Western blotting analysis", "format": "cell-based"}, "[6]": {"assay": "Inhibition of PI3K (unknown origin) by TR-FRET assay", "set-up": "species or system Homo sapiens"}, "[7]": {"species": "Mus musculus", "assay": "Inhibition of PI3K in mouse lung fibroblast assessed as reduction in pAkt level at 25 uM after 1 hr by Western blotting analysis"}, "[8]": {"species": "Mus musculus", "assay": "Inhibition of PI3K in mouse lung fibroblast assessed as reduction in pAkt level after 1 hr by Western blotting analysis"}, "[9]": {"biological_target": "T1, Dual specificity mitogen-activated protein kinase kinase 1", "assay": "Inhibition of MEK1 in human PANC1 cells assessed as reduction in pErk1/2 level after 1 hr by Western blotting analysis", "format": "cell-based", "conditions": "PANC-1"}, "[10]": {"biological_target": "T1, Dual specificity mitogen-activated protein kinase kinase 1", "assay": "Inhibition of MEK1 in human PANC1 cells assessed as reduction in pErk1/2 level at 25 uM after 1 hr by Western blotting analysis", "format": "cell-based", "conditions": "PANC-1"}, "[11]": {"system": "PANC-1", "assay": "Inhibition of PI3K in human PANC1 cells assessed as reduction in pAkt level after 1 hr by Western blotting analysis", "format": "cell-based"}, "[12]": {"biological_target": "T1, Dual specificity mitogen-activated protein kinase kinase 1", "assay": "Inhibition of MEK1 in human A549 cells assessed as reduction in pErk1/2 level after 1 hr by Western blotting analysis", "format": "cell-based"}, "[13]": {"biological_target": "Dual specificity mitogen-activated protein kinase kinase 1 (Mus musculus) (UniProt P31938)", "sequence (P31938 whole entry)": "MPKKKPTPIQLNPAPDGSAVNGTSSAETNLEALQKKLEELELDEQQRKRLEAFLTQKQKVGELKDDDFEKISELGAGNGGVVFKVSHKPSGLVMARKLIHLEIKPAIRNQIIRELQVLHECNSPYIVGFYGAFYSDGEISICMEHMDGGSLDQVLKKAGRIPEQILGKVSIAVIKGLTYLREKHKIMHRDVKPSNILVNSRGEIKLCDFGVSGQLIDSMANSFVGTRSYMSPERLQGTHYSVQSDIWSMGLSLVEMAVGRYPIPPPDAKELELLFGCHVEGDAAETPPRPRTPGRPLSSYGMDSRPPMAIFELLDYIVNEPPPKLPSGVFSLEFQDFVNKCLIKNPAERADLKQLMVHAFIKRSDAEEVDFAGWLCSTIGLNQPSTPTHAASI", "assay": "Inhibition of MEK1 in mouse lung fibroblast assessed as reduction in pErk1/2 level at 25 uM after 1 hr by Western blotting analysis"}, "[14]": {"system": "PANC-1", "assay": "Inhibition of PI3K in human PANC1 cells assessed as reduction in pAkt level at 25 uM after 1 hr by Western blotting analysis", "format": "cell-based"}, "[15]": {"biological_target": "Dual specificity mitogen-activated protein kinase kinase 1 (Mus musculus) (UniProt P31938)", "assay": "Inhibition of MEK1 in mouse lung fibroblast assessed as reduction in pErk1/2 level after 1 hr by Western blotting analysis"}, "[16]": {"biological_target": "Aurora kinase B (Homo sapiens, UniProt Q96GD4)", "sequence (Q96GD4 whole entry)": "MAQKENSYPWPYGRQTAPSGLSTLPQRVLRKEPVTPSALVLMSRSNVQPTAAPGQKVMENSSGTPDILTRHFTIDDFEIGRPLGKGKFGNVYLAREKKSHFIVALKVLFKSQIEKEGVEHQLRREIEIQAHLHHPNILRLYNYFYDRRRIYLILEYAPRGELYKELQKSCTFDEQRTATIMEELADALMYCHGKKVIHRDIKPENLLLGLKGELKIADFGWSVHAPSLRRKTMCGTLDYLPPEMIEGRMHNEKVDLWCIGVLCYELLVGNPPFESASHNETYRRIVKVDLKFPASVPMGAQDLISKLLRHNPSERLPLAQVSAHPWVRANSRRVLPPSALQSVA", "assay": "Inhibition of AurB (unknown origin)"}, "[17]": {"assay": "Cytotoxicity against human PANC1 cells at 10 to 25 uM after 24 hrs by Alamar Blue assay", "format": "functional, PANC-1"}, "[18]": {"assay": "Inhibition of ERK (unknown origin)", "set-up": "species or system Homo sapiens"}, "[19]": {"biological_target": "Protein kinase C alpha type (Homo sapiens, UniProt P17252)", "assay": "Inhibition of PKC-alpha (unknown origin)"}, "[20]": {"biological_target": "Epidermal growth factor receptor (Homo sapiens, UniProt P00533)", "sequence (P00533 whole entry)": "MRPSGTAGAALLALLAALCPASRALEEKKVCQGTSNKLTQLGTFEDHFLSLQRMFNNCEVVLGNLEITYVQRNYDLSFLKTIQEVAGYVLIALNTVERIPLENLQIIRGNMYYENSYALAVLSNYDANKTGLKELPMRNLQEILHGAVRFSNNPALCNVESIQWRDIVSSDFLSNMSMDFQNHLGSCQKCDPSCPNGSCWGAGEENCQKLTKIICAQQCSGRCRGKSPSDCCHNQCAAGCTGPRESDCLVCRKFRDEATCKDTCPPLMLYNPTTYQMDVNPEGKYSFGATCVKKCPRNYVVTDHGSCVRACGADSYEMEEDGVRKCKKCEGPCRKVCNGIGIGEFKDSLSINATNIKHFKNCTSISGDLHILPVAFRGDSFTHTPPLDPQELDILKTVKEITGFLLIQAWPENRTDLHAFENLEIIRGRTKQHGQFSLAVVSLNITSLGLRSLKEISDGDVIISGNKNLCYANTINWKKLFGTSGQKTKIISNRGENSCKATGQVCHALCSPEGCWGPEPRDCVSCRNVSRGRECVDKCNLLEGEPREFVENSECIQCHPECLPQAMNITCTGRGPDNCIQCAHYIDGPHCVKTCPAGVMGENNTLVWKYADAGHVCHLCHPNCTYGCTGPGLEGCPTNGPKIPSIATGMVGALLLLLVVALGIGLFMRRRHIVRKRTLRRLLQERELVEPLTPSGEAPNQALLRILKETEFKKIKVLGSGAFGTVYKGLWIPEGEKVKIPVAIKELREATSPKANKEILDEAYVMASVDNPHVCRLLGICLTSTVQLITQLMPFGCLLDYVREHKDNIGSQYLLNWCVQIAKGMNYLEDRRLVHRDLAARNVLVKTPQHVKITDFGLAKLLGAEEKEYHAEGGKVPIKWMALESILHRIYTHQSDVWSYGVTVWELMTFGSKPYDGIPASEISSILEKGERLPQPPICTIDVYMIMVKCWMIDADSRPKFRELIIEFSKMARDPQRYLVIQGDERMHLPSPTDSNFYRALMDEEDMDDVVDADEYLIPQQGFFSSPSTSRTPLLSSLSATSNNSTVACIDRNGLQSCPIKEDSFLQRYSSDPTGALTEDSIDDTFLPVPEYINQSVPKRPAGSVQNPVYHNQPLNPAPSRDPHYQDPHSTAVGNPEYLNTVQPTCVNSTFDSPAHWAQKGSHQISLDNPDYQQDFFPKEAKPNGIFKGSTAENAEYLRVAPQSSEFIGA", "assay": "Inhibition of EGFR (unknown origin)"}, "[21]": {"biological_target": "Dual specificity mitogen-activated protein kinase kinase 1 (Mus musculus) (UniProt P31938)", "assay": "Inhibition of MEK1 in mouse lung fibroblast assessed as reduction in pErk1/2 level at 10 uM after 1 hr by Western blotting analysis"}, "[22]": {"system": "A549", "assay": "Inhibition of PI3K in human A549 cells assessed as reduction in pAkt level at 10 uM after 1 hr by Western blotting analysis", "format": "cell-based"}, "[23]": {"system": "PANC-1", "assay": "Inhibition of PI3K in human PANC1 cells assessed as reduction in pAkt level at 10 uM after 1 hr by Western blotting analysis", "format": "cell-based"}, "[24]": {"species": "Mus musculus", "assay": "Inhibition of PI3K in mouse lung fibroblast assessed as reduction in pAkt level at 10 uM after 1 hr by Western blotting analysis"}}, "note": "Activity calls are given as the source filed them. The calls are words filed in the database; no cut-off is given here."}
{"smiles": "Cc1c(Cc2cccc(N(C)S(=O)(=O)CCCNCCCCCC(=O)N3CCN(c4nc(N5CCOCC5)nc(-n5c(C(F)F)nc6ccccc65)n4)CC3)c2)c(=O)oc2cc(OC(=O)N(C)C)ccc12", "values": [{"measurement": "inhibition", "setting": "[1]", "value": "Dose-dependent effect"}, {"measurement": "Activity", "setting": "[2]", "value": "Non-toxic"}, {"measurement": "inhibition", "setting": "[3]", "value": "Active"}, {"measurement": "Activity", "setting": "[4]", "value": 50, "unit": "%"}, {"measurement": "inhibition", "setting": "[5]", "value": "Active"}, {"measurement": "IC50", "setting": "[6]", "value": 0.172, "unit": "µM"}, {"measurement": "inhibition", "setting": "[7]", "value": "Active"}, {"measurement": "inhibition", "setting": "[8]", "value": "Dose-dependent effect"}, {"measurement": "inhibition", "setting": "[9]", "value": "Dose-dependent effect"}, {"measurement": "inhibition", "setting": "[10]", "value": "Active"}, {"measurement": "inhibition", "setting": "[11]", "value": "Dose-dependent effect"}, {"measurement": "inhibition", "setting": "[12]", "value": "Dose-dependent effect"}, {"measurement": "inhibition", "setting": "[13]", "value": "Active"}, {"measurement": "inhibition", "setting": "[14]", "value": "Active"}, {"measurement": "inhibition", "setting": "[15]", "value": "Dose-dependent effect"}, {"measurement": "IC50", "setting": "[16]", "value": "> 10", "unit": "µM"}, {"measurement": "Activity", "setting": "[17]", "value": 50, "unit": "%"}, {"measurement": "IC50", "setting": "[18]", "value": "> 10", "unit": "µM"}, {"measurement": "IC50", "setting": "[19]", "value": "> 10", "unit": "µM"}, {"measurement": "IC50", "setting": "[20]", "value": "> 10", "unit": "µM"}]}
{"smiles": "FC(F)c1nc2ccccc2n1-c1nc(N2CCOCC2)nc(N2CCOCC2)n1", "values": [{"measurement": "inhibition", "setting": "[21]", "value": "inactive"}, {"measurement": "inhibition", "setting": "[22]", "value": "Active"}, {"measurement": "inhibition", "setting": "[23]", "value": "Active"}, {"measurement": "inhibition", "setting": "[24]", "value": "Active"}]}
{"smiles": "NCCCCCC(=O)N1CCN(c2nc(N3CCOCC3)nc(-n3c(C(F)F)nc4ccccc43)n2)CC1", "values": [{"measurement": "IC50", "setting": "[6]", "value": "< 0.1", "unit": "µM"}]}
{"smiles": "O=C(CCCCC[N+](=O)[O-])N1CCN(c2nc(N3CCOCC3)nc(-n3c(C(F)F)nc4ccccc43)n2)CC1", "values": [{"measurement": "IC50", "setting": "[6]", "value": "> 1", "unit": "µM"}]}
{"smiles": "CNS(=O)(=O)Nc1nccc(Cc2c(C)c3ccc(Oc4ncccn4)cc3oc2=O)c1F", "values": [{"measurement": "inhibition", "setting": "[21]", "value": "Active"}, {"measurement": "inhibition", "setting": "[22]", "value": "inactive"}, {"measurement": "inhibition", "setting": "[23]", "value": "inactive"}, {"measurement": "inhibition", "setting": "[24]", "value": "inactive"}]}
{"smiles": "O=C(NOC[C@H](O)CO)c1ccc(F)c(F)c1Nc1ccc(I)cc1F", "values": [{"measurement": "inhibition", "setting": "[21]", "value": "Active"}, {"measurement": "inhibition", "setting": "[22]", "value": "inactive"}, {"measurement": "inhibition", "setting": "[23]", "value": "inactive"}, {"measurement": "inhibition", "setting": "[24]", "value": "inactive"}]}
